Measurements as given in patent publication US20250223262A1, “[…] OF […] REDUCED HERG ACTIVITY AND MOP BINDING” (Heinrich-Heine-Universität Düsseldorf, priority 2022, published 2025).

Experiments:
[1] = system: SafetyScreen44™ Panel with all 44 targets; experiment: SafetyScreen44 Panel toxicological test; details: test concentration 1.0 10^−5 M
Experimental: Inhibition of potassium voltage-gated channel subfamily H member 2 (hERG) of the compounds was measured as in the SafetyScreen44™ Panel (see Example 3). The hERG channel binding assay is part of the SafetyScreen44™ Panel, but can also be conducted solely. The entire SafetyScreen44™ Panel with all 44 targets was just conducted for the three compounds as shown in [0206], for the other molecules just the hERG inhibition was measured.

μ-opioid (MOP) receptor = μ-opioid (MOP) receptor (Homo sapiens, UniProt P35372); experiment: MOP receptor inhibition, SafetyScreen44 Panel; assay type: binding; details: test concentration 1.0 10^−5 M
[2] = target: T1, potassium voltage-gated channel subfamily H member 2 (hERG) (Homo sapiens, UniProt Q12809); experiment: hERG channel binding assay ([3H] Dofetilide); details: SafetyScreen44 Panel, test concentration 1.0 10^−5 M
T1 construct: expressed in transfected cells; host or cells: HEK-293
Experimental: (§1) For the hERG channel binding assay, compound binding was calculated as % inhibition of the binding of a radioactively labeled ligand that is specific for the target (i.e., [3H] Dofetilide). HEK-293 cells (human embryonic kidney cells) were used for these binding assays. The compounds were tested at a concentration of 10 μM and 2 repetitions were conducted for each compound.

[3] = Intraperitoneal glucose tolerance test and plasma insulin (in vivo); parameters: species or system mice; details: for effect on blood glucose concentration compared to control: glucose tolerance test in vivo
Experimental: (A) n=8 mice for control and n=7 mice for Kom56, (D) n=8 mice each. (B,E) Blood glucose concentrations of mice during i.p. glucose tolerance tests with 1.5 mg/g BW glucose with or without i.p. compound administration. n=8 mice each. (C,F) AUC0-120min calculation of blood glucose concentrations of B,E. Statistical testing: (A,D) two-way ANOVA followed by Sidak's multiple comparison test. (B,C,E,F) unpaired two-sided Student's t-test. All values are shown with mean±SEM, except for glucose tolerance tests (B,E), in which all values are mean±SD.
Further, glucose tolerance tests (in vivo) were performed, if the corresponding in vitro assays were “positive”.
Glucose tolerance tests for the compounds were performed like in paragraph [0209].

[4] = target: T2, hERG (potassium voltage-gated channel subfamily H member 2) (Homo sapiens, UniProt Q12809); experiment: hERG channel binding assay ([3H] Dofetilide); details: human, HEK-293 cells (hERG channel binding assay), probe [3H] Dofetilide; 10 μM, [3H] Dofetilide, HEK-293 cells, 2 repetitions; read-out: hERG inhibition (% inhibition of the binding of a ligand specific for the target)
T2 construct: expressed in transfected cells; host or cells: HEK-293
Experimental: as §1

mouse pancreatic islets [5] = experiment: Insulin secretion assay on isolated pancreatic islets (in vitro); assay type: cell-based; details: low (2 mM) and high glucose (20 mM), FIG. 1
Experimental: Statistical testing: two-way ANOVA followed by Sidak's multiple comparison test. All values are shown with mean±SEM.
Further, insulin secretion assays (in vitro) were performed.
Insulin secretion assays for the compounds were performed like in paragraph [0208].

[6] = Oral glucose tolerance test and plasma insulin (in vivo); details: mice, FIG. 3
Experimental: (B) Blood glucose concentrations of mice during oral glucose tolerance test with 1.5 mg/g BW glucose with or without p.o. compound administration. n=7 mice for control and n=8 mice for Kom56. (C) AUC0-120min calculation of blood glucose concentrations of B. Statistical testing: (A) two-way ANOVA followed by Sidak's multiple comparison test. (B,C) unpaired two-sided Student's t-test. All values are shown with mean±SEM, except for glucose tolerance test (B), in which all values are mean±SD.

mouse pancreatic islets [7] = experiment: Streptozotocin-induced islet cell death; assay type: cell-based; details: 2 mM streptozotocin, 1 μM Kom56, 24 h, FIG. 7
Excerpt: Blue (Hoechst), nuclei; red (ethidium homodimer1), dead cells; green (calcein), viable cells. (B) Area of dead cells in mouse islets treated as described in A. n=4 islet batches each with 11-14 islets per batch for each group. Statistical testing: (B) one-way ANOVA followed by Tukey's multiple comparison test. All values are shown with mean±SEM. (A) Scale bars, 50 μm.

mouse pancreatic islets [8] = experiment: Islet cell death induced by oxidative stress (H2O2), flow cytometry; assay type: cell-based; details: 150 μM H2O2, 1 and 0.1 μM Kom56, 24 h, FIG. 6
Experimental: (A) Healthy control, (B) pancreatic islets incubated with 150 μM H2O2, (C) 150 μM H2O2 plus 1 μM Kom56, and (D) 150 μM H2O2 plus 0.1 μM Kom56. Analyzed by flow cytometry. Pancreatic islets were dissociated using trypsin and stained with Fixable Viability Stain 660 (FVS660). FVS660+=dead cells, FVS660-=living cells, values are shown in %.

[9] = Von Frey monofilament paw withdrawal test; assay type: in vivo; details: mice, i.p. administration, paw withdrawal thresholds versus PBS, FIG. 5
Excerpt: (A) Force that is needed to reach a 50% threshold, and (B) force that is needed to reach a 75% threshold in paw withdrawal. n=6 mice each. Statistical testing: (A,B) unpaired two-sided Student's t-test. All values are shown with mean±SEM.

T1 sequence (Q12809 whole entry): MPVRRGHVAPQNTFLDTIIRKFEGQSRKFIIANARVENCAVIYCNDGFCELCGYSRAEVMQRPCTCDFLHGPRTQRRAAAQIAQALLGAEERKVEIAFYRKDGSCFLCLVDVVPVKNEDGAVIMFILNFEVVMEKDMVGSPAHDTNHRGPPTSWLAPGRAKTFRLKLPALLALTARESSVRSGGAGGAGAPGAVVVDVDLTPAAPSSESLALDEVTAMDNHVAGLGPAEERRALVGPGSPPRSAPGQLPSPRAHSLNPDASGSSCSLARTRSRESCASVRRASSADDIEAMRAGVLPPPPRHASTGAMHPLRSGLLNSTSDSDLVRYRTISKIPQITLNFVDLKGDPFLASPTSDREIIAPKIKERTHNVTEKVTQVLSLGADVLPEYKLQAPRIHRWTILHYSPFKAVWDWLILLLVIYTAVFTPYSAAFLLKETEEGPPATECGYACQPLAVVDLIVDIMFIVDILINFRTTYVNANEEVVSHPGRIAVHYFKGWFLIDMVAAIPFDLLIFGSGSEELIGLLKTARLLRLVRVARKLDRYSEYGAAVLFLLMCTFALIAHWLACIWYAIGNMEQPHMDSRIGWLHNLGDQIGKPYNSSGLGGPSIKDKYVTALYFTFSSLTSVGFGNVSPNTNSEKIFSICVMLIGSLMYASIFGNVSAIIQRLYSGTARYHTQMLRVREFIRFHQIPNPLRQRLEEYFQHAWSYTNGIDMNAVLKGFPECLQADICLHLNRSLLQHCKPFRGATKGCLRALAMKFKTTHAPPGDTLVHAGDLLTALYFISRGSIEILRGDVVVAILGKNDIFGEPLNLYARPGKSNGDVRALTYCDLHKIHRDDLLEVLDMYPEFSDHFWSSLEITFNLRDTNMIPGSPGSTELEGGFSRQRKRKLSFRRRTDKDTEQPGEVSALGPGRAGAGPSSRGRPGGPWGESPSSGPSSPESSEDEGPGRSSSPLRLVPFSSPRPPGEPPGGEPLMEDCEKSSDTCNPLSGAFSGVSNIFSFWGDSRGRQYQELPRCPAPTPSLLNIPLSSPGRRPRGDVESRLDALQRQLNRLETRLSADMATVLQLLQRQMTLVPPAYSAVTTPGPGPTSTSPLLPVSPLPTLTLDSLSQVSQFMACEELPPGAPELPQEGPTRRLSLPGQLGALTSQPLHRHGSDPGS
μ-opioid (MOP) receptor, sequence (P35372 whole entry): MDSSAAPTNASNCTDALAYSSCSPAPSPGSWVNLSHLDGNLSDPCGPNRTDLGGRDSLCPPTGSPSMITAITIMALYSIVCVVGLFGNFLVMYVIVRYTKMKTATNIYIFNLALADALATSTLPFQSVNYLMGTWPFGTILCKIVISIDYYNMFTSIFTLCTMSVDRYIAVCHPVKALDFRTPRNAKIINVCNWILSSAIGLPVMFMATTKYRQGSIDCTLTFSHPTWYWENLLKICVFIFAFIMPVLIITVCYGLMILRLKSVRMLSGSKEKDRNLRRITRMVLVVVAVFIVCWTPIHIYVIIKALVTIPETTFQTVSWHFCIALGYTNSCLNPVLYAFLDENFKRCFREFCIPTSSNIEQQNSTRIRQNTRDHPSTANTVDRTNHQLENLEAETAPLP
T2 sequence (Q12809 whole entry): as the sequence (Q12809 whole entry) above

COc1ccc2c(c1)[C@]13CCCC[C@@H]1[C@H](C2)N(C)CC3 [DXM, dextromethorphan]
toxicology (hits with over 50% inhibition) [1]: 6
inhibition at 10 µM (μ-opioid (MOP) receptor): 85%
hERG inhibition [%] [2]: 20.9%

COc1cc2c(cc1N1CC(N(C)C)C1)C[C@H]1C3CCCC[C@@]23CCN1C (stereo partly drawn) [Compound 35, 1-[(1S,9S)-4-methoxy-17-methyl-17-azatetracyclo[7.5.3.0^1,^10,0^2,^7]heptadeca-2(7),3,5-trien-5-yl]-N,N-dimethylazetidin-3-amine]
effect on blood glucose concentration compared to control [3]: slightly positive effect
inhibition at 10 µM [4]: < 15%

COc1cc2c(cc1NC(=O)c1cncn1C)C[C@H]1C3CCCC[C@@]23CCN1C (stereo partly drawn) [Compound 7, N-[(1S,9S)-4-methoxy-17-methyl-17-azatetracyclo[7.5.3.0^1,^10,0^2,^7]heptadeca-2(7),3,5-trien-5-yl]-1-methyl-1H-imidazole-5-carboxamide]
MOP inhibition [%] (μ-opioid (MOP) receptor): 33.7%
effect on blood glucose concentration compared to control [3]: significant effect
plasma insulin concentrations ([3]; mice, 30 min after i.p. administration together with glucose, FIG. 2): increases plasma insulin concentrations
glucose tolerance ([3]; mice, i.p. glucose tolerance test, 1.5 mg/g BW glucose, i.p. compound, FIG. 2): improves glucose tolerance
hERG inhibition [%] [2]: 7.9%
glucose-stimulated insulin secretion from mouse pancreatic islets (mouse pancreatic islets [5]): increases the glucose-stimulated insulin secretion
plasma insulin concentrations ([6]; 30 min after p.o. administration together with glucose): increases plasma insulin concentrations
glucose tolerance ([6]; oral glucose tolerance test, 1.5 mg/g BW glucose, p.o. compound): improves glucose tolerance
protection from streptozotocin-induced cell death (mouse pancreatic islets [7]): protects mouse pancreatic islets from streptozotocin-induced cell death
protection from cell death induced by oxidative stress (mouse pancreatic islets [8]): protects mouse pancreatic islets from cell death induced by oxidative stress
touch sensitivity during mechanical stimulation with Von Frey monofilaments [9]: reduces touch sensitivity

Br.Br.COc1cc2c(cc1-n1ccnc1)C[C@H]1[C@H]3CCCC[C@@]23CCN1C [DXM-2, (9S, 13S, 14S)-2-(1H-Imidazol-1-yl)-3-methoxy-17-methyl morphinan dihydrobromide]
toxicology (hits with over 50% inhibition) [1]: 7
inhibition at 10 µM (μ-opioid (MOP) receptor): 83.6%
hERG inhibition [%] [2]: 51.8%

4-[(1S,9S)-4-methoxy-17-methyl-17-azatetracyclo[7.5.3.0^1,^10,0^2,^7]heptadeca-2(7),3,5-trien-5-yl]-1-methylpiperazin-2-one [Compound 36]
effect on blood glucose concentration compared to control [3]: slightly positive effect
